In test [1] the target is T1, LPA1 (Homo sapiens, UniProt Q92633). Details: host or cells: IPF patients (in vivo). Conditions: 26-week clinical trial, IPF patients; cited from earlier work.
Test [2] has as its target T1, LPA1. The test is described as follows: LPA1 functional antagonist assay (calcium flux in CHO cells overexpressing human LPA1). The test is classed as cell-based. Set-up: expressed in transfected cells; host or cells: Chinese hamster ovary (CHO) cells. Conditions: CHO cells overexpressing human LPA1, calcium flux induced by 10 nM LPA; read-out: hLPA1 IC50. How it is done: The effectiveness of compounds of the present invention as LPA1 inhibitors can be determined in an LPA1 functional antagonist assay as follows:
Chinese hamster ovary cells overexpressing human LPA1 were plated overnight (15,000 cells/well) in poly-D-lysine coated 384-well microplates (Greiner bio-one, Cat #781946) in DMEM/F12 medium (Gibco, Cat #11039). Following overnight culture, cells were loaded with calcium indicator dye (AAT Bioquest Inc, Cat #34601) for 30 minutes at 37° C. The cells were then equilibrated to room temperature for 30 minutes before the assay. Test compounds solubilized in DMSO were transferred to 384 well non-binding surface plates (Corning, Cat #3575) using the Labcyte Echo acoustic dispense and diluted with assay buffer [[…] with calcium/magnesium (Gibco Cat #14025-092), 20 mM HEPES (Gibco Cat #15630-080) and 0.1% fatty acid free BSA (Sigma Cat #A9205)] to a final concentration of 0.5% DMSO. Diluted compounds were added to the cells by FDSS6000 (Hamamatsu) at final concentrations ranging from 0.08 nM to 5 μM. and were then incubated for 20 min at room temperature at which time LPA (Avanti Polar Lipids Cat #857130C) was added at final concentrations of 10 nM to stimulate the cells. The compound IC50 value was defined as the concentration of test compound which inhibited 50% of the calcium flux induced by LPA alone. IC50 values were determined by fitting data to a 4-parameter logistic equation (GraphPad Prism, San Diego Calif.).

The test system of test [3] is human foetal lung fibroblasts. To be noted: cited from earlier work.
Another test concerns UUO mice. To be noted: compared with LPA1 (-/-) mice; cited from earlier work.
The test system of another test is CTGF. Conditions: MCT cells, co-treatment with LPA; cited from earlier work.
In test [4] the test system is pancreatic cancer cell lines. Conditions: cited from earlier work.
Test [5] deals with highly peritoneal metastatic pancreatic cancer cell line. Conditions: cited from earlier work.
The next test has as its system nerve-injured mice. Conditions: pretreatment; cited from earlier work.

The values that follow come from patent US11261180B2, “Cyclohexyl acid isoxazole azoles as LPA antagonists” (Bristol-Myers Squibb Company, priority 2017, dated 2022).

T1 sequence (Q92633 whole entry): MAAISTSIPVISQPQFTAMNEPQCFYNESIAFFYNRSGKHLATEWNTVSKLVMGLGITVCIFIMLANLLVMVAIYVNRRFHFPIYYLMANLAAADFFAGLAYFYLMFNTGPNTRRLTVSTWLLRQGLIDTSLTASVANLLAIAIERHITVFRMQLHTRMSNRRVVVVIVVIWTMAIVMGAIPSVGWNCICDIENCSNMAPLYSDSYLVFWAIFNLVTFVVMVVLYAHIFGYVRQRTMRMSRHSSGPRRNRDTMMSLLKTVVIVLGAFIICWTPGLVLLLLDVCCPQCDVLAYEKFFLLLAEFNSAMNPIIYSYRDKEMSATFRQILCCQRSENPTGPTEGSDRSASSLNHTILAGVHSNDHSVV

On to `Cc1noc(-c2ccc(-c3ccc(C4(C(=O)O)CC4)cc3)cc2)c1NC(=O)O[C@H](C)c1ccccc1` [BMS-986020], for which, at LPA1 [1], the “rate of FVC (forced vital capacity) decline” value was “significantly reduce the rate of FVC (forced vital capacity) decline”.

Usually IC50 stands for the concentration needed to halve the response being measured. On to `Cc1nc(-c2onc(C)c2CNc2ncn(-c3ccccc3)n2)ccc1O[C@H]1CCC[C@H](C(=O)O)C1` [Example 7], for which, on LPA1 [2], the half-maximal inhibitory concentration (IC50) was 29 nM.

For `Cc1noc(-c2ccc(O[C@H]3CCC[C@H](C(=O)O)C3)cn2)c1CNc1ncc(C(F)(F)F)s1` [Example 6, (1S,3S)-3-((6-(3-methyl-4-(((5-(trifluoromethyl)thiazol-2-yl)amino)methyl)isoxazol-5-yl)pyridin-3-yl)oxy)cyclohexane-1-carboxylic acid], the IC50 on LPA1 [2] amounted to 486 nM.

As for `Cc1noc(-c2ccc(O[C@H]3CCC[C@H](C(=O)O)C3)cn2)c1CNc1ncc(-c2ccccc2)s1` [Example 3, (1S,3S)-3-((6-(3-methyl-4-(((5-phenyl-thiazol-2-yl)amino)methyl)isoxazol-5-yl)pyridin-3-yl)oxy) cyclohexane-1-carboxylic acid], the IC50 at LPA1 [2] was 712 nM.

With `Cc1noc(-c2ccc(O[C@H]3CCC[C@H](C(=O)O)C3)cn2)c1CNc1nc(-c2ccccc2)ns1` [Example 4, (1S,3S)-3-((6-(3-methyl-4-(((3-phenyl-1,2,4-thiadiazol-5-yl)amino)methyl)isoxazol-5-yl)pyridin-3-yl)oxy) cyclohexane-1-carboxylic acid], the IC50 on LPA1 [2] came out at 153 nM.

With `Cc1noc(-c2ccc(CSCCC(=O)O)cc2)c1NC(=O)OC(C)c1ccccc1Cl` (centres unmarked) [Ki16425], in test [3], the “chemotaxis of human foetal lung fibroblasts induced by BAL from IPF patients” value is “blocked” and the “increased fibroblast chemotactic activity in bronchoalveolar lavage samples of IPF subjects” value is given as “inhibited”. Besides, the “renal fibrosis profile in UUO mice” value in the test on UUO mice is given as “closely resembled the profile of LPA1 (−/−) mice”. For the same molecule, the “LPA induction of CTGF expression” value with CTGF is given as “almost completely suppressed”. Further, the “in vitro migration in response to LPA and peritoneal fluid (ascites) from pancreatic cancer patients” value in test [4] is on record as “effectively blocked”. Besides, the “LPA-induced and ascites-induced invasion activity” value in test [5] was “blocked”.

Regarding `Cc1nc(NCc2c(C)noc2-c2ccc(O[C@H]3CCC[C@H](C(=O)O)C3)cn2)sc1-c1ccccc1` [Example 5], the IC50 at LPA1 [2] was 41 nM.

For `C[C@@H](N)[C@H]1CC[C@H](C(=O)Nc2ccncc2)CC1` [Example Y-27632], in the test with nerve-injured mice, the allodynia and hyperalgesia result was “completely abolished”.

Take `CCCc1nnc(NCc2c(C)noc2-c2ccc(O[C@H]3CCC[C@H](C(=O)O)C3)cn2)s1` [Example 1, (1S,3S)-3-((6-(3-methyl-4-(((5-propyl-1,3,4-thiadiazol-2-yl)amino)methyl)isoxazol-5-yl)pyridin-3-yl)oxy)cyclohexane-1-carboxylic Acid]: the IC50 on LPA1 [2] came out at 2470 nM.
